The series concerns GENE-TOX genotoxicity assays, various organisms and cells. Put plainly: GENE-TOX mutagenicity studies. To be noted: for call: Assay Type: In vivo carcinogenicity studies.
Setting [1] is: Species/Cell Type: Nonhuman, Assay Code: CCG+, Evaluation Type: Evaluation A (Pre-1980).
The mark [2] stands for this setting: Species/Cell Type: Nonhuman, Assay Type: Sister-chromatid exchange (SCE) in vitro, Assay Code: SC2T, Evaluation Type: Evaluation B (Post-1980).
[3] abbreviates: Species/Cell Type: Vicia faba, Assay Type: Chromosome aberrations, Assay Code: VIC+, Evaluation Type: Evaluation A (Pre-1980).
Where [4] appears, read: Species/Cell Type: Saccharomyces cerevisiae, Assay Type: Mitotic recombination or gene conversion, Assay Code: YEC-, Evaluation Type: Evaluation A (Pre-1980).
The mark [5] stands for this setting: Species/Cell Type: Drosophila melanogaster, Assay Type: Sex-linked recessive lethal gene mutation, Assay Code: SRL+, Evaluation Type: Evaluation A (Pre-1980).
The mark [6] stands for this setting: Species/Cell Type: Escherichia coli WP2, Assay Type: Tryptophan reverse gene mutation, Assay Code: WP2+, Evaluation Type: Evaluation A (Pre-1980).
Where [7] appears, read: Species/Cell Type: Nonhuman, Assay Type: Sister-chromatid exchange (SCE) in vitro, Assay Code: SC2+D, Dose Response: With dose response, Evaluation Type: Evaluation B (Post-1980).
Setting [8] is: Species/Cell Type: Saccharomyces cerevisiae, Assay Type: Mitotic recombination or gene conversion, Assay Code: YEC+, Evaluation Type: Evaluation A (Pre-1980).
The mark [9] stands for this setting: Species/Cell Type: Salmonella typhimurium (one or more of the five standard strains: TA98, TA100, TA1535, TA1537, and TA1538), Assay Type: Histidine reverse gene mutation, Ames assay, Assay Code: SAL+, Evaluation Type: Evaluation A (Pre-1980).

The values below come from PubChem BioAssay AID1259408 (Genetic Toxicology Data Bank (GENE-TOX), 2018).

Calls of active or inactive are those of the source. The rule behind the calls is not given here.

In the case of `O=C(O)CN(CC(=O)O)CC(=O)O`, the mutagenic call reads like this: (Species/Cell Type: Drosophila melanogaster, Assay Type: Sex-linked recessive lethal gene mutation, Assay Code: SRL-, Evaluation Type: Evaluation A (Pre-1980)) “inactive; negative”; (Species/Cell Type: Mouse, Sex: Male, Assay Type: Heritable translocation test, chromosome aberrations, Assay Code: HTT-, Evaluation Type: Evaluation A (Pre-1980)) “inactive; negative”; under setting [2], “no conclusion”; (Species/Cell Type: Salmonella typhimurium (one or more of the five standard strains: TA98, TA100, TA1535, TA1537, and TA1538), Assay Type: Histidine reverse gene mutation, Ames assay, Assay Code: SALT, Evaluation Type: Evaluation B (Post-1980)) “no conclusion”; under setting [3], “active; positive”. Besides, the call under setting [1] was “active; positive”.

`O=S(=O)(O)c1ccc(N=Nc2cc(S(=O)(=O)O)c3ccccc3c2O)c2ccccc12`: the mutagenic call runs as follows: (Species/Cell Type: Bacillus subtilis (H17 vs M45), Assay Type: Rec-assay, spot test, DNA effects (bacterial DNA repair), Assay Code: REWT, Evaluation Type: Evaluation A (Pre-1980)) “no conclusion”; under setting [4], “inactive; negative”; (Species/Cell Type: Salmonella typhimurium (one or more of the five standard strains: TA98, TA100, TA1535, TA1537, and TA1538), Assay Type: Histidine reverse gene mutation, Ames assay, Assay Code: SAL-, Evaluation Type: Evaluation A (Pre-1980)) “inactive; negative”. Also, under “Species/Cell Type: Nonhuman, Assay Code: CCG-, Evaluation Type: Evaluation A (Pre-1980)”, the call was “inactive; negative”.

As for `CN(N=O)C(N)=O`, the mutagenic call is “active; positive” (Species/Cell Type: Allium cepa, Assay Type: Chromosome aberrations, Assay Code: ALC+D, Dose Response: With dose response, Evaluation Type: Evaluation A (Pre-1980)); “active; positive” (Species/Cell Type: Arabidopsis species, Assay Type: Gene mutation, Assay Code: ARM+D, Dose Response: With dose response, Evaluation Type: Evaluation A (Pre-1980)); “active; positive” (Species/Cell Type: Chinese hamster lung (V79) cells, Assay Type: Forward gene mutation at the HPRT or ouabain locus, Assay Code: V79+, Evaluation Type: Evaluation A (Pre-1980)); “active; positive” (Species/Cell Type: Chinese hamster ovary (CHO) cells, Assay Type: Forward gene mutation at the HPRT locus, Assay Code: CHO+D, Dose Response: With dose response, Evaluation Type: Evaluation A (Pre-1980)); “active; positive” (Species/Cell Type: Drosophila melanogaster, Assay Type: Aneuploidy, partial sex chromosome loss, chromosome aberrations, Assay Code: DAP+M, Evaluation Type: Evaluation A (Pre-1980)); “active; positive” (Species/Cell Type: Drosophila melanogaster, Assay Type: Aneuploidy, whole sex chromosome loss, chromosome aberrations, Assay Code: DAC+M, Evaluation Type: Evaluation A (Pre-1980)). Besides, the mutagenic call under setting [5] is “active; positive”; the mutagenic call (Species/Cell Type: Drosophila melanogaster, Sex: Male, Assay Type: Heritable translocation test, chromosome aberrations, Assay Code: DHT+, Evaluation Type: Evaluation A (Pre-1980)) was “active; positive”; the mutagenic call under setting [6] was “active; positive”; the mutagenic call (Species/Cell Type: Escherichia coli WP2 UVRA, Assay Type: Tryptophan reverse gene mutation, Assay Code: WPU+, Evaluation Type: Evaluation A (Pre-1980)) was “active; positive”; the mutagenic call (Species/Cell Type: Escherichia coli polA (W3119 vs P3478), Assay Type: Rec-assay, DNA effects (bacterial DNA repair), Assay Code: RE1+, Evaluation Type: Evaluation A (Pre-1980)) is “active; positive”; the mutagenic call (Species/Cell Type: Glycine max (soybean), Assay Type: Gene mutation, Assay Code: GLM+, Evaluation Type: Evaluation A (Pre-1980)) is “active; positive”. Moreover, the mutagenic call was “active; positive” (Species/Cell Type: Hordeum vulgare (barley), Assay Type: Chromosome aberrations, Assay Code: HOC+, Evaluation Type: Evaluation A (Pre-1980)); “active; positive” (Species/Cell Type: Hordeum vulgare (barley), Assay Type: Gene mutation, Assay Code: HOM+, Evaluation Type: Evaluation A (Pre-1980)); “active; positive” (Species/Cell Type: Human cell culture, Assay Type: Chromosome aberrations in vitro, Assay Code: CYZ+, Evaluation Type: Evaluation A (Pre-1980)); “active; positive” (Species/Cell Type: Human diploid fibroblasts, Assay Type: Unscheduled DNA synthesis (UDS) in vitro, DNA effects, Assay Code: UDH+, Evaluation Type: Evaluation A (Pre-1980)); “active; positive” (Species/Cell Type: Human lymphocytes, Assay Type: Sister-chromatid exchange (SCE) in vitro, Assay Code: SCL+D, Dose Response: With dose response, Evaluation Type: Evaluation B (Post-1980)); “active; positive” (Species/Cell Type: Human, Assay Type: Sister-chromatid exchange (SCE) in vitro, Assay Code: SC1+D, Dose Response: With dose response, Evaluation Type: Evaluation B (Post-1980)). The mutagenic call was “no conclusion” (Species/Cell Type: Mammalian polychromatic erythrocytes, Assay Type: Micronucleus test, chromosome aberrations, Assay Code: MNTT, Evaluation Type: Evaluation A (Pre-1980)); “active; positive” (Species/Cell Type: Mouse germ cells, Sex: Male, Assay Type: Unscheduled DNA synthesis (UDS) in vivo, DNA effects, Assay Code: UDT+, Evaluation Type: Evaluation A (Pre-1980)); “active; positive” (Species/Cell Type: Mouse, Sex: Male, Assay Type: Sperm morphology, Assay Code: SPI+, Evaluation Type: Evaluation A (Pre-1980)); “active; positive” (Species/Cell Type: Neurospora crassa, Assay Type: Forward gene mutation, Assay Code: NEF+, Evaluation Type: Evaluation A (Pre-1980)); “active; positive” (Species/Cell Type: Neurospora crassa, Assay Type: Reverse gene mutation, Assay Code: NER+, Evaluation Type: Evaluation A (Pre-1980)); “active; positive” (Species/Cell Type: Nonhuman, Assay Type: Sister-chromatid exchange (SCE) in vitro, Assay Code: SC2+, Evaluation Type: Evaluation A (Pre-1980)). Also, the mutagenic call was “active; positive” under setting [7]; “active; positive” (Species/Cell Type: Nonhuman, Assay Type: Sister-chromatid exchange (SCE) in vivo, Assay Code: SC3+D, Dose Response: With dose response, Evaluation Type: Evaluation B (Post-1980)); “active; positive” (Species/Cell Type: Rat primary hepatocytes, Assay Type: Unscheduled DNA synthesis (UDS) in vitro, DNA effects, Assay Code: UDP+, Evaluation Type: Evaluation A (Pre-1980)); “inactive; negative” (Species/Cell Type: Rodents, Sex: Male, Assay Type: Dominant lethal test, Assay Code: DLT-, Evaluation Type: Evaluation A (Pre-1980)); “active; positive” (Species/Cell Type: Saccharomyces cerevisiae, Assay Type: Aneuploidy, chromosome aberrations, Assay Code: YEN+, Evaluation Type: Evaluation A (Pre-1980)); “active; positive” under setting [8]. Also, the mutagenic call is, setting by setting: (Species/Cell Type: Saccharomyces cerevisiae, Assay Type: Reverse gene mutation, Assay Code: YER+, Evaluation Type: Evaluation A (Pre-1980)) “active; positive”; under setting [9], “active; positive”; (Species/Cell Type: Salmonella typhimurium, Escherichia coli, Serratia marcesens, Assay Type: Forward and reverse gene mutation, host-mediated assay, Assay Code: HMN+, Evaluation Type: Evaluation A (Pre-1980)) “active; positive”; under setting [3], “active; positive”; (Species/Cell Type: Zea mays (corn), Assay Type: Gene mutation, Assay Code: ZEM+D, Dose Response: With dose response, Evaluation Type: Evaluation A (Pre-1980)) “active; positive”. Further, under setting [1], the call was “active; positive”.

As for `COC1OC[C@@H](C(C)=O)[C@H]1C` (stereo partly drawn), the mutagenic call under setting [2] is “no conclusion”.

For `CCCCN(CCCO)N=O`, under setting [9], the mutagenic call is “active; positive”.

On to `CCNc1nc(NC(C)C)nc(SC)n1`, for which, under setting [4], the mutagenic call was “inactive; negative”.

As to `CN(N=O)C(=O)Oc1cccc2ccccc12`, the mutagenic call runs as follows: (Species/Cell Type: Bacillus subtilis (H17 vs M45T), Assay Type: Rec-assay, spot test, DNA effects (bacterial DNA repair), Assay Code: REX+, Evaluation Type: Evaluation A (Pre-1980)) “active; positive”; under setting [6], “active; positive”; under setting [7], “active; positive”; under setting [8], “active; positive”; under setting [9], “active; positive”.

For `COc1ccc(N=NN(C)C)cc1`, the mutagenic call is, setting by setting: under setting [5], “active; positive”; under setting [8], “active; positive”.

As for `Cc1[nH]cnc1CSCCN(N=O)C(=NC#N)N(C)N=O`, under setting [7], the mutagenic call was “active; positive”.

Turning to `Cc1cc2ccccc2c2ccc3ccc(F)cc3c12`, where the note is “Species/Cell Type: Salmonella typhimurium (one or more of the five standard strains: TA98, TA100, TA1535, TA1537, and TA1538), Assay Type: Histidine reverse gene mutation, Ames assay, Assay Code: SALT, Evaluation Type: Evaluation A (Pre-1980)”, the mutagenic call is given as “no conclusion”.
